± gives the standard deviation of the averaged measurements.
Columns and labels:
Assay in all cases: level (log10 ratio to DMSO vehicle control); higher = higher biomarker level / cell amount than vehicle control
Conditions in all cases: in DMSO
[1] = compound: O=C(O)C(F)(F)C(F)(F)OC(F)(F)F [Perfluoro-3-methoxypropanoic acid]
Experimental: (§1)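 BioMAP Diversity Plus panel of 12 human primary cell co-culture systems (3C, 4H, LPS, SAg, BT, BF4T, BE3C, CASM3C, HDF3CGF, KF3CT, MyoF, Mphg). Compounds were added 1 h before stimulation and left for 24 h (MyoF 48 h; BT 72 h for soluble read-outs or 6 d for IgG). Biomarkers were read by ELISA, cytotoxicity by SRB, PBMC viability and proliferation by Alamar Blue. Each well value was divided by the mean of 8 DMSO control wells on the same plate and log10 transformed; duplicate blinded samples were tested at 4 concentrations.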

[2] = compound: O=C(O)C(F)(F)C(F)(F)C(F)(F)OC(F)(C(F)(F)F)C(F)(F)F [Perfluoro-4-isopropoxybutanoic acid]
Experimental: as §1

[3] = compound: O=S(=O)(O)C(F)(F)C(F)(F)C(F)(F)C(F)(F)C(F)(F)C(F)(F)F [Perfluorohexanesulfonic acid]
Experimental: as §1

[4] = compound: FC(F)(F)C(F)(C(F)(F)F)C(F)(F)C(F)(F)CC1CO1 [3-(Perfluoro-3-methylbutyl)-1,2-propenoxide]
Experimental: as §1

[5] = compound: O=C(O)C(F)(F)C(F)(F)C(F)F [4H-Perfluorobutanoic acid]
Experimental: as §1

[6] = compound: NC(=O)C(F)(F)C(F)(F)F [Pentafluoropropionamide]
Experimental: as §1

[7] = compound: O=C(O)C(F)(F)C(F)(F)C(F)(F)C(F)(F)F [Perfluoropentanoic acid]
Experimental: as §1

Test System	level (log10) ([1]; 6700 nM)	level (log10) ([1]; 20000 nM)	level (log10) ([1]; 60000 nM)	level (log10) ([2]; 6700 nM)	level (log10) ([2]; 20000 nM)	level (log10) ([2]; 60000 nM)	level (log10) ([3]; 6700 nM)	level (log10) ([3]; 20000 nM)	level (log10) ([3]; 60000 nM)	level (log10) ([4]; 6700 nM)	level (log10) ([4]; 20000 nM)	level (log10) ([5]; 6700 nM)	level (log10) ([5]; 20000 nM)	level (log10) ([5]; 60000 nM)	level (log10) ([6]; 6700 nM)	level (log10) ([6]; 20000 nM)	level (log10) ([6]; 60000 nM)	level (log10) ([7]; 6700 nM)	level (log10) ([7]; 20000 nM)	level (log10) ([7]; 60000 nM)
BE3C:CD87/uPAR	-0.0225 ± 0.0092	-0.012 ± 0.013	0.002 ± 0.041	-0.016 ± 0.033	0.001 ± 0.031	0.0275 ± 0.035	0.0285 ± 0.00071	0.0015 ± 0.0035	0.035 ± 0.025	0.01 ± 0.011	-0.008 ± 0.0057	-0.003 ± 0.013	-0.0175 ± 0.019	0.0015 ± 0.005	0.0115 ± 0.042	-0.025 ± 0.0057	-0.0145 ± 0.022	-0.0035 ± 0.063	-0.0235 ± 0.026	0.024 ± 0.0014
LPS:CXCL8/IL-8	0.0285 ± 0.035	0.018 ± 0.017	0.027 ± 0.0014	0.0515 ± 0.0021	0.0935 ± 0.035	0.134 ± 0.018	-0.0005 ± 0.0021	0.0025 ± 0.0078	0.0675 ± 0.047	0.0325 ± 0.043	0.045 ± 0.072	-0.0155 ± 0.019	-0.008 ± 0.02	0.018 ± 0.024	-0.009 ± 0.013	-0.0115 ± 0.00071	0.0285 ± 0.037	-0.0075 ± 0.00071	-0.0095 ± 0.022	0.0245 ± 0.052
SAg:CXCL9/MIG	0.001 ± 0.0057	0.006 ± 0.0042	-0.002 ± 0.0099	-0.007 ± 0.0099	0.002 ± 0.0042	0.002 ± 0.0071	0.004	-0.005 ± 0.0057	0.0035 ± 0.0078	-0.0255 ± 0.005	-0.002 ± 0.018	-0.0115 ± 0.00071	-0.0035 ± 0.0078	0.0095 ± 0.016	-0.0145 ± 0.0021	-0.017 ± 0.0014	0.009 ± 0.014	-0.0115 ± 0.0078	-0.014 ± 0.0099	0.004 ± 0.021
3C:CD87/uPAR	-0.016 ± 0.05	-0.021 ± 0.013	0.021 ± 0.021	-0.001 ± 0.04	-0.009 ± 0.041	-0.023 ± 0.033	-0.005 ± 0.027	0.0045 ± 0.011	-0.0285 ± 0.013	-0.0085 ± 0.00071	-0.003 ± 0.0028	-0.0265 ± 0.0092	-0.0065 ± 0.0092	0.0095 ± 0.0064	-0.052 ± 0.016	-0.042 ± 0.038	-0.049 ± 0.014	-0.003 ± 0.021	-0.0045 ± 0.021	-0.0105 ± 0.015
